From patent publication US20160137982A1, “P38 MAPK INHIBITOR-CONTAINING MEDIUM AND METHOD FOR OSTEOGENIC DIFFERENTIATION” (TAMPEREEN YLIOPISTO, priority 2013, published 2016)

What was measured:
[1] = test system: human adipose stem cells (hASCs); assay: Quantitative alkaline phosphatase (ALP) activity of hASCs, normalized to DNA, as early osteogenic marker; type: cell-based
Procedure: (§1) The study was conducted in accordance with the ethics committee of the Pirkanmaa Hospital District, Tampere, Finland (R03058). ASCs were isolated from subcutaneous adipose tissue samples obtained with written informed consent from 4 female donors (age, 44±7 years) undergoing elective surgical procedures in the Department of Plastic Surgery, Tampere University Hospital, Tampere, Finland. Isolation of hASCs from adipose tissue samples was carried out by using a mechanical and enzymatic method. The adipose tissue was minced manually into small fragments and digested with collagenase NB 6 GMP Grade (SERVA Electrophoresis GmbH, Heidelberg, Germany) in a water bath at 37° C. under shaking conditions. The digested tissue was centrifuged and filtered in sequential steps through a 100-μm poresize filter to separate the ASCs from the surrounding tissue. Cells were expanded in T75 flasks and passaged after reaching 80% confluency. Expansion was done in DMEM/F-12 1:1 (Life Technologies, Gibco, Carlsbad, Calif., USA) supplemented with 1% l-analyl-l-glutamine (GlutaMAX I; Life Technologies, Gibco), 1% antibiotics (p/s; 100 U/ml penicillin, 0.1 mg/ml streptomycin; Lonza, BioWittaker, Verviers, Belgium) and 10% HS (PAA Laboratories). ASCs were detached by using TrypLE Select (LifeTechnologies, Gibco). Cell surface marker profile (FIG. 1) was analyzed using flow cytometry (FACSAria; BD Biosciences, Erembodegem, Belgium) as described in Patrikoski et al (2013).
The effect obtainable with the present medium and method was studied experimentally. The differentiation into osteogenic cells was analysed following alkaline phosphatase (ALP) as early osteogenic marker and mineralization as a marker for advanced osteogenic process. FIG. 2 illustrates protein expression of alkaline phosphatase (ALP) analysis in various media. Results have been normalized to the amount of DNA. BM denotes basal medium, SB a p38 MAP kinase inhibitor SB 202190 and OM an osteogenic medium. In FIG. 2A these differentiation media results (BM+SB and OM) were compared against BM as a control. In FIG. 2B and 2C results from two cell lines from different patients were analyzed in two time points (after 7 and 14 days) to show the independence on the source (patient-lines) of the present medium and inter-patient predictability in that sense. In these experiments, SB was used in a concentration of 2 μM.
In further experiments, the effect of a concentration gradient of two different p38 MAPK inhibitors, i.e. SB 202190 and JX401, on osteogenic differentiation of hASCs was analysed. First, the effect of SB202190 inhibitor in a concentration range of 2 to 10 μM on hASCs was studied in BM culture conditions. […] In this case, the analysis was performed both in BM and osteogenic medium (OM).
(§2) In the above experiments, the basal medium used was DMEM/F12+5% HSPaa serum. Said p38 MAP kinase inhibitor SB 202190 was from SigmaAldrich, while JX401 was from Calbiochem. Osteogenic medium representing the state of the art, was a base medium supplemented with L-ascorbic acid-2phosphate (AsAP), β-glycerolphosphate, and dexamethasone.

[2] = test system: human adipose stem cells (hASCs); assay: Quantitative Alizarin Red mineralization assay of hASCs; type: cell-based; conditions: for peak concentration (Alizarin Red mineralization): 2 or 5 μM tested
Procedure: as §1
FIG. 3 represents quantitated Alizarin Red mineralization analysis of ASCs in basal medium, osteogenic medium, with and without SB inhibitor (2 μM) in time point 21 days.
To analyze how p38MAPK inhibitors affect the progression of osteogenic differentiation, Alizarin Red mineralization assay was performed both in BM and OM conditions. In both culture conditions, SB202190 inhibitor peaked at the concentration of 2 μM, but in OM also 5 μM was functional (FIG. 4C).
as §2

COc1cc(SC)ccc1C(=O)N1CCC(Cc2ccccc2)CC1 [JX401, 1-[2-Methoxy-4-(methylthio)benzoyl]-4-benzylpiperidine]
ALP activity of hASCs ([1]; 2 μM in BM, days 7 and 14, patient cell line 15/12 (FIG. 4B)): effective as compared to the highest concentration
functional concentration peak (ALP activity) ([1]; in BM, 2/5/10 μM tested, days 7 and 14, patient cell line 15/12 (FIG. 4B)): 5 µM
most effective concentration (ALP activity) ([1]; in OM, 2/5/10 μM tested, days 7 and 14, patient cell line 15/12 (FIG. 4B)): 2 µM

Oc1ccc(-c2nc(-c3ccc(F)cc3)c(-c3ccncc3)[nH]2)cc1 [SB202190, 4-(4-Fluorophenyl)-2-(4-hydroxyphenyl)-5-(4-pyridyl)-1H-imidazole]
Alizarin Red mineralization with and without inhibitor ([2]; 2 μM, day 21, patient cell line 41/12 (FIG. 3)): enhancer of advanced processes of osteogenesis
Alizarin Red mineralization ([2]; 5 μM in OM, day 14, patient cell line 11/13 (FIG. 4C)): functional
peak concentration (Alizarin Red mineralization) ([2]; in BM, day 14, patient cell line 11/13 (FIG. 4C)): 2 µM
peak concentration (Alizarin Red mineralization) ([2]; in OM, day 14, patient cell line 11/13 (FIG. 4C)): 2 µM
ALP activity of hASCs ([1]; 2 μM in BM, day 14, patient cell line 1/13 (FIG. 4A)): clearly enhanced
osteogenic differentiation (ALP) in basal medium compared with osteogenic medium ([1]; 2 μM inhibitor in BM vs OM): almost equal level as with use of osteogenic medium
detection of alkaline phosphatase marker / differentiation across patient cell lines ([1]; 2 μM inhibitor, days 7 and 14, different patient cell lines): detected in every patient cell line
ALP activity of hASCs ([1]; 5 μM in BM, day 14, patient cell line 1/13 (FIG. 4A)): clearly enhanced
ALP activity of hASCs ([1]; 10 μM in BM, day 14, patient cell line 1/13 (FIG. 4A)): diminished compared to the other two concentrations
